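48-hour exposure; five concentrations; linearly interpolated endpoints. GI50 is the concentration that inhibits growth by half. TGI is the concentration that stops growth completely.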
What was measured:
Assay in all cases: growth of human tumour cells (NCI), 48 h
[1] = test system: 786-0 renal
[2] = test system: A498 renal
[3] = test system: A549 NSCLC
[4] = test system: ACHN renal
[5] = test system: BT-549 breast
[6] = test system: CAKI-1 renal
[7] = test system: CCRF-CEM leukemia
[8] = test system: COLO 205 colon
[9] = test system: DU-145 prostate
[10] = test system: EKVX NSCLC
[11] = test system: HCC-2998 colon
[12] = test system: HCT-116 colon
[13] = test system: HCT-15 colon
[14] = test system: HL-60(TB) leukemia
[15] = test system: HOP-62 NSCLC
[16] = test system: HOP-92 NSCLC
[17] = test system: HS 578T breast
[18] = test system: HT29 colon
[19] = test system: IGROV1 ovarian
[20] = test system: K-562 leukemia
[21] = test system: KM12 colon
[22] = test system: LOX IMVI melanoma
[23] = test system: M14 melanoma
[24] = test system: MALME-3M melanoma
[25] = test system: MCF7 breast
[26] = test system: MDA-MB-231 breast
[27] = test system: MDA-MB-435
[28] = test system: MDA-MB-468 breast
[29] = test system: MOLT-4 leukemia
[30] = test system: NCI-H226 lung
[31] = test system: NCI-H23 lung
[32] = test system: NCI-H460 lung
[33] = test system: NCI-H522 lung
[34] = test system: NCI/ADR-RES ovarian
[35] = test system: OVCAR-3 ovarian
[36] = test system: OVCAR-4 ovarian
[37] = test system: OVCAR-5 ovarian
[38] = test system: OVCAR-8 ovarian
[39] = test system: PC-3 prostate
[40] = test system: RPMI-8226 leukemia
[41] = test system: RXF 393 renal
[42] = test system: SF-268 CNS
[43] = test system: SF-295 CNS
[44] = test system: SF-539 CNS
[45] = test system: SK-MEL-2 melanoma
[46] = test system: SK-MEL-28 melanoma
[47] = test system: SK-MEL-5 melanoma
[48] = test system: SK-OV-3 ovarian
[49] = test system: SN12C renal
[50] = test system: SNB-19 CNS
[51] = test system: SNB-75 CNS
[52] = test system: SR leukemia
[53] = test system: SW-620 colon
[54] = test system: T-47D breast
[55] = test system: TK-10 renal
[56] = test system: U251 CNS
[57] = test system: UACC-257 melanoma
[58] = test system: UACC-62 melanoma
[59] = test system: UO-31 renal

## COc1ccc(-c2nc3ccc(-c4nnc(SCc5ccccc5)o4)cc3[nH]2)cc1
[1]
  GI50: 1.97 µM
  TGI: 4.26 µM
[2]
  GI50: 2.17 µM
  TGI: 3.97 µM
[3]
  GI50: 3.48 µM
  TGI: 13.8 µM
[4]
  GI50: 2.48 µM
  TGI: 6 µM
[5]
  GI50: 3.27 µM
  TGI: 7.64 µM
[6]
  GI50: 1.98 µM
  TGI: 3.81 µM
[7]
  GI50: 2.82 µM
  TGI: 19.6 µM
[8]
  GI50: 15.9 µM
  TGI: 89.1 µM
[9]
  GI50: 6.89 µM
  TGI: 23.4 µM
[10]
  GI50: 3.98 µM
  TGI: 16.6 µM
[11]
  GI50: 13.2 µM
  TGI: 78.9 µM
[12]
  GI50: 3.66 µM
  TGI: 15.7 µM
[13]
  GI50: 2.97 µM
  TGI: 11.9 µM
[14]
  GI50: 2.79 µM
  TGI: 15.5 µM
[15]
  GI50: 3.17 µM
  TGI: 9.51 µM
[16]
  GI50: 6.46 µM
  TGI: 24 µM
[17]
  GI50: 2.77 µM
  TGI: 7.29 µM
[18]
  GI50: 3.48 µM
  TGI: 12 µM
[19]
  GI50: 10.7 µM
  TGI: 23.9 µM
[20]
  GI50: 2.9 µM
  TGI: 24.8 µM
[21]
  GI50: 11.3 µM
  TGI: > 100 µM
[22]
  GI50: 1.91 µM
  TGI: 3.73 µM
[23]
  GI50: 4.25 µM
  TGI: 26.5 µM
[24]
  GI50: 1.81 µM
  TGI: 3.58 µM
[25]
  GI50: 2.86 µM
  TGI: 12.8 µM
[26]
  GI50: 2.55 µM
  TGI: 6.3 µM
[27]
  GI50: 3.05 µM
  TGI: 11.3 µM
[28]
  GI50: 2.36 µM
  TGI: 7.36 µM
[29]
  GI50: 3.58 µM
  TGI: > 100 µM
[30]
  GI50: 1.76 µM
  TGI: 3.84 µM
[31]
  GI50: 4.21 µM
  TGI: 19.8 µM
[32]
  GI50: 3.71 µM
  TGI: 16.3 µM
[33]
  GI50: 2.27 µM
  TGI: 7.08 µM
[34]
  GI50: 2.51 µM
  TGI: 7.69 µM
[35]
  GI50: 2.82 µM
  TGI: 6.37 µM
[36]
  GI50: 2.12 µM
  TGI: 5.08 µM
[37]
  GI50: 15.6 µM
  TGI: 38.5 µM
[38]
  GI50: 1.91 µM
  TGI: 3.87 µM
[39]
  GI50: 3.1 µM
  TGI: 11.2 µM
[40]
  GI50: 2.96 µM
  TGI: 17.4 µM
[41]
  GI50: 2.2 µM
  TGI: 7.45 µM
[42]
  GI50: 3.53 µM
  TGI: 13.7 µM
[43]
  GI50: 2.07 µM
  TGI: 4.42 µM
[44]
  GI50: 1.73 µM
  TGI: 3.22 µM
[45]
  GI50: 2.44 µM
  TGI: 7.73 µM
[46]
  GI50: 3.14 µM
  TGI: 12.2 µM
[47]
  GI50: 2.64 µM
  TGI: 9.41 µM
[48]
  GI50: 5.51 µM
  TGI: 21.5 µM
[49]
  GI50: 2.07 µM
  TGI: 4.88 µM
[50]
  GI50: 7.81 µM
  TGI: 21 µM
[51]
  GI50: 1.66 µM
  TGI: 3.27 µM
[52]
  GI50: 4.76 µM
  TGI: > 100 µM
[53]
  GI50: 7.02 µM
  TGI: 44.2 µM
[54]
  GI50: 2.02 µM
  TGI: 4.84 µM
[55]
  GI50: 3.13 µM
  TGI: 8.83 µM
[56]
  GI50: 2.07 µM
  TGI: 4.6 µM
[57]
  GI50: 4.81 µM
  TGI: 23.1 µM
[58]
  GI50: 2.15 µM
  TGI: 6.05 µM
[59]
  GI50: 4.16 µM
  TGI: 16.1 µM

## OC1CCC(Cn2c(C(F)(F)F)cc3c(Cl)ncnc32)CC1 (stereo unspecified)
[1]
  GI50: 32.1 µM
  TGI: > 100 µM
[2]
  GI50: > 100 µM
  TGI: > 100 µM
[3]
  GI50: 30.8 µM
  TGI: > 100 µM
[4]
  GI50: 8.76 µM
  TGI: 49.9 µM
[5]
  GI50: 13.1 µM
  TGI: 27.9 µM
[6]
  GI50: 16.8 µM
  TGI: 52.8 µM
[7]
  GI50: 5.56 µM
  TGI: > 100 µM
[8]
  GI50: 24.4 µM
  TGI: > 100 µM
[9]
  GI50: 7.87 µM
  TGI: 20.5 µM
[10]
  GI50: 12.9 µM
  TGI: 38.7 µM
[11]
  GI50: 1.8 µM
  TGI: 3.33 µM
[12]
  GI50: 3.56 µM
  TGI: 15.8 µM
[13]
  GI50: 3.69 µM
  TGI: 20.1 µM
[14]
  GI50: 2.62 µM
  TGI: 9.01 µM
[15]
  GI50: 19.7 µM
  TGI: 57.6 µM
[16]
  GI50: 20.6 µM
  TGI: 64.6 µM
[17]
  GI50: 13.8 µM
  TGI: 53.6 µM
[18]
  GI50: 15.6 µM
  TGI: > 100 µM
[19]
  GI50: 1.97 µM
  TGI: 4.07 µM
[20]
  GI50: 2.88 µM
  TGI: > 100 µM
[21]
  GI50: 26.4 µM
  TGI: 94.3 µM
[22]
  GI50: 1.71 µM
  TGI: 3.15 µM
[23]
  GI50: 4.94 µM
  TGI: 27 µM
[24]
  GI50: 17.7 µM
  TGI: 64.5 µM
[25]
  GI50: 36.9 µM
  TGI: > 100 µM
[26]
  GI50: 4.45 µM
  TGI: 20.1 µM
[27]
  GI50: 12.1 µM
  TGI: 25.8 µM
[28]
  GI50: 2.14 µM
  TGI: 5.69 µM
[29]
  GI50: 2.77 µM
  TGI: 8.15 µM
[30]
  GI50: 23.4 µM
  TGI: 79.7 µM
[31]
  GI50: 3.08 µM
  TGI: 11.4 µM
[32]
  GI50: 4.76 µM
  TGI: 16.6 µM
[33]
  GI50: 1.54 µM
  TGI: 3.55 µM
[34]
  GI50: 26.1 µM
  TGI: > 100 µM
[35]
  GI50: 8.04 µM
  TGI: 29.1 µM
[36]
  GI50: 17.8 µM
  TGI: 47.2 µM
[37]
  GI50: > 100 µM
  TGI: > 100 µM
[38]
  GI50: 2.29 µM
  TGI: 5.39 µM
[39]
  GI50: 9.01 µM
  TGI: 36.3 µM
[40]
  GI50: 34 µM
  TGI: > 100 µM
[41]
  GI50: 12.5 µM
  TGI: 35 µM
[42]
  GI50: 2.52 µM
  TGI: 6.89 µM
[43]
  GI50: 22.7 µM
  TGI: 84 µM
[44]
  GI50: 17.7 µM
  TGI: 39 µM
[45]
  GI50: 13.2 µM
  TGI: 27.9 µM
[46]
  GI50: 9.38 µM
  TGI: 30.8 µM
[47]
  GI50: 4.81 µM
  TGI: 16.7 µM
[48]
  GI50: 22.4 µM
  TGI: > 100 µM
[49]
  GI50: 5.36 µM
  TGI: 19.8 µM
[50]
  GI50: 13.4 µM
  TGI: 26.8 µM
[51]
  GI50: 10.8 µM
  TGI: 23.1 µM
[52]
  GI50: 2.14 µM
  TGI: 6.78 µM
[53]
  GI50: 12.2 µM
  TGI: 38.8 µM
[54]
  GI50: 26.5 µM
  TGI: > 100 µM
[55]
  GI50: > 100 µM
  TGI: > 100 µM
[56]
  GI50: 3.21 µM
  TGI: 12.8 µM
[57]
  GI50: 3.4 µM
  TGI: 14.1 µM
[58]
  GI50: 5.4 µM
  TGI: 19.3 µM
[59]
  GI50: 15.1 µM
  TGI: 65.8 µM

Reference: PubChem BioAssay (NCI)
